In patent US7935718B2, “Treatment of dyskinesia” (Motac Neuroscience Limited, priority 2000, dated 2011):

Experiments:
[1] = test system: reserpine-treated rat model of Parkinson's disease; assay: Locomotion (hyperkinesia) after chloro-APB in reserpine-treated parkinsonian rats; format: in vivo; conditions: reserpine (3 mg/kg) rats, chloro-APB (0.2 mg/kg) + imetit (1 mg/kg) versus vehicle, one hour period
Protocol: The effect of the H3-histamine receptor agonist imetit on dyskinesia was assessed in a reserpine-treated rat model of Parkinson's disease following treatment of the rats with the anti-parkinsonian agent chloro-APB (0.2 mg/kg).
Male Sprague-Dawley rats were split into two groups A and B. Rats in both groups were rendered parkinsonian by subcutaneous administration of reserpine (3 mg/kg) for 18 hours.
After the 18 hours Group A were treated with chloro-APB (0.2 mg/kg) and imetit (1 mg/kg) whereas B were treated with chloro-APB (0.2 mg/kg) and vehicle for imetit only.
The locomotion of the rats in Groups A and B was measured over a one hour period using Benwick locomotor monitors. These locomotion monitors consist of a visually-shielded open-field arena, the perimeter of which is surrounded by a series of infra-red beams arranged at 5 cm intervals. PC-based software (Amlogger) assesses the number of beams broken. The number of beams broken as part of a locomotor movement (mobile counts) or the number of beam breaks while the animal is not locomoting (static counts) were measured. In addition, the system assesses the time for which animals are mobile or static.

[2] = test system: MPTP-lesioned marmoset model of Parkinson's disease; assay: L-DOPA-induced mobility and dyskinesia in MPTP-lesioned marmosets; format: in vivo, Marmosets (Callithrix jacchus); conditions: L-DOPA (8 mg/kg) + imetit 1, 3, 10 mg/kg oral; assessed every 30 minutes for 4 hours
Protocol: The effect of the H3-histamine receptor agonist imetit on L-DOPA-induced dyskinesia was assessed in the MPTP-lesioned marmoset model of Parkinson's disease.
Marmosets (Callithrix jacchus) (bred in a closed colony at the University of Manchester) are rendered parkinsonian by subcutaneous injection of 2 mg kg^−1 MPTP for 5 consecutive days. The marmosets are allowed to recover for a minimum of 10 weeks until their parkinsonism becomes stable. The degree of activity and disability before and after MPTP treatment is assessed using a combination of scales as described in section 2.1.2. Animals are then treated with L-DOPA for at least 3 weeks to prime them to elicit dyskinesia. […]
The behavioural tests were assessed every 30 minutes for 4 hours, by post hoc analysis of video-recordings by an observer blinded to the treatment. […]

**Q.** How did the total mobile counts [1] turn out when `N=C(N)SCCc1cnc[nH]1` [imetit] was run?
**A.** less than those treated with vehicle

**Q.** And the “L-DOPA-induced mobility (mobility score)” value [2]?
**A.** no effect on L-DOPA-induced mobility

**Q.** What about the “severity of L-DOPA-induced dyskinesia (dyskinesia score)” value [2] of the same molecule?
**A.** dose-dependent reduction
